Assay results published in ChEMBL document CHEMBL1141723, “Specific targeting of metzincin family members with small-molecule inhibitors: progress toward a multifarious challenge” (Bioorg Med Chem, 2008).
pIC50, pKi: −log10 of the molar value. The source made the active and inactive calls. No cut-off for these calls is given here.

What was measured:
[1] = target: A disintegrin and metalloproteinase with thrombospondin motifs 1 (Homo sapiens, UniProt Q9UHI8); test: Inhibition of ADAMTS1
Interstitial collagenase = target: T1, Interstitial collagenase (Homo sapiens, UniProt P03956)
T1 sequence (P03956 whole entry): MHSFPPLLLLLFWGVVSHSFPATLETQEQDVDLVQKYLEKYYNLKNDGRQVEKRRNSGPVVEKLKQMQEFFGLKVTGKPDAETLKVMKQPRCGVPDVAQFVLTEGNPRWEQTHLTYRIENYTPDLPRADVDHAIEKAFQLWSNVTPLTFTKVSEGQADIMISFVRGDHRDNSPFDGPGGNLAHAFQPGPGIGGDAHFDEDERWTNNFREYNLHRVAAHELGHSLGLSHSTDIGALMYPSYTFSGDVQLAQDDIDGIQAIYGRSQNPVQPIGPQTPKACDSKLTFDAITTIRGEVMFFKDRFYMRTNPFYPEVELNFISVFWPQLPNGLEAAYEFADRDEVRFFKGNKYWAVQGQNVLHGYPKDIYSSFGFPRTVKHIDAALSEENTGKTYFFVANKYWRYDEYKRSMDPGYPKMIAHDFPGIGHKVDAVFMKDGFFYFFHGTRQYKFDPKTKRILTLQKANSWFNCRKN

[2] = target: T2, Disintegrin and metalloproteinase domain-containing protein 10 (Homo sapiens, UniProt O14672); test: Inhibition of ADAM10
T2 sequence (O14672 whole entry): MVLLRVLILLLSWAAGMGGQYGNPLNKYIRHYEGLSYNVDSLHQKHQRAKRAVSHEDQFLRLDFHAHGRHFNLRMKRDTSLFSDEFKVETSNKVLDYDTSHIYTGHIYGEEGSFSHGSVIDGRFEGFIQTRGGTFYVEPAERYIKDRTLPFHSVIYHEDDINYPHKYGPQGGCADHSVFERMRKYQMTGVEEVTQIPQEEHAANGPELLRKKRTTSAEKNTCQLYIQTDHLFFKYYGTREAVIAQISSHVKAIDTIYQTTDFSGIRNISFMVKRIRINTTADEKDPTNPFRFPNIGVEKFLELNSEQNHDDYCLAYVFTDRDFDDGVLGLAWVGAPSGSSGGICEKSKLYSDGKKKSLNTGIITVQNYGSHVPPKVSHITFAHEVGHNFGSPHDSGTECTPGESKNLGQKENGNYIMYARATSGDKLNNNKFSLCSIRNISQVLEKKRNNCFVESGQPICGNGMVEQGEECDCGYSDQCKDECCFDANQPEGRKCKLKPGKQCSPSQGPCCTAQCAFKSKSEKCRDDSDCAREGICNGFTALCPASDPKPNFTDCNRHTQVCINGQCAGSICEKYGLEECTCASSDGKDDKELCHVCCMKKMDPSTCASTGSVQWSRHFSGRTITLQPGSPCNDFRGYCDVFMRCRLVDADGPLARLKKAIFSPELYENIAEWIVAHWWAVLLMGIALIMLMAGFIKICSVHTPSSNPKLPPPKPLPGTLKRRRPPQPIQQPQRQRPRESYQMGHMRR

[3] = target: Disintegrin and metalloproteinase domain-containing protein 17 (Sus scrofa, UniProt O77636); test: Inhibition of pig TACE
[4] = target: Matrix metalloproteinase-9 (Homo sapiens, UniProt P14780); test: Inhibition of MMP9
Chain of Matrix metalloproteinase-9 (P14780 whole entry): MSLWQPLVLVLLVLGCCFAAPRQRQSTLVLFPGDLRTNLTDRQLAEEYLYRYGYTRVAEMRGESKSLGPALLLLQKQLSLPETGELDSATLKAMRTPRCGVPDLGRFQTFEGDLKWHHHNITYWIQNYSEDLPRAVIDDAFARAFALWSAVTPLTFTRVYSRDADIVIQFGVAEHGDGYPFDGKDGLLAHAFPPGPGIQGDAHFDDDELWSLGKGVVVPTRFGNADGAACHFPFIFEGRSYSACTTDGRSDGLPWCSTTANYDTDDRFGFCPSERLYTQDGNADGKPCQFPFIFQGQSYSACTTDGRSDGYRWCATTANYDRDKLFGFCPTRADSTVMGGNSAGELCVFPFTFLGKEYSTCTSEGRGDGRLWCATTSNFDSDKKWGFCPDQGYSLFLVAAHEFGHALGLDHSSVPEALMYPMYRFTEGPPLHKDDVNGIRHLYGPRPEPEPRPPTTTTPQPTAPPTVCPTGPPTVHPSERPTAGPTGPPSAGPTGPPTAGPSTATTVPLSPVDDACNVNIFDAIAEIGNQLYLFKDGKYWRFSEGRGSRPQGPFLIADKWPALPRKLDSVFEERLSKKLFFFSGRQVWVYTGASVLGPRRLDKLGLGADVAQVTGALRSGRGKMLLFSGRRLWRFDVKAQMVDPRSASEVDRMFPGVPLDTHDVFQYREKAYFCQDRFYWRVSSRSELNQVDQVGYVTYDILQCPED

Stromelysin-1 = Stromelysin-1 (Homo sapiens, UniProt P08254)
Chain of Stromelysin-1 (P08254 whole entry): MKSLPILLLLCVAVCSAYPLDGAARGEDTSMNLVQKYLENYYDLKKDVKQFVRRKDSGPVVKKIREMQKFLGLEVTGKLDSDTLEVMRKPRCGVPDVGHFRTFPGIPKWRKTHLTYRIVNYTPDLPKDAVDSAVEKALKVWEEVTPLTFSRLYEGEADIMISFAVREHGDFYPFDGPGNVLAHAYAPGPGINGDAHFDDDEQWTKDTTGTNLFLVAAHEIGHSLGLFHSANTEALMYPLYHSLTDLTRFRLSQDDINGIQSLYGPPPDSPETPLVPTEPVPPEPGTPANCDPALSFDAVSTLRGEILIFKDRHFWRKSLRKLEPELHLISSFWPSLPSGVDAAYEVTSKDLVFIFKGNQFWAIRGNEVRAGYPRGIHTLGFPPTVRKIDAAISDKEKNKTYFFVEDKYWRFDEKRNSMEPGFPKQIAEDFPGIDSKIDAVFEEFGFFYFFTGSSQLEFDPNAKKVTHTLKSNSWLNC

Neutrophil collagenase = Neutrophil collagenase (Homo sapiens, UniProt P22894); test: Inhibition of MMP8
[5] = target: 72 kDa type IV collagenase (Homo sapiens, UniProt P08253)
Chain of 72 kDa type IV collagenase (P08253 whole entry): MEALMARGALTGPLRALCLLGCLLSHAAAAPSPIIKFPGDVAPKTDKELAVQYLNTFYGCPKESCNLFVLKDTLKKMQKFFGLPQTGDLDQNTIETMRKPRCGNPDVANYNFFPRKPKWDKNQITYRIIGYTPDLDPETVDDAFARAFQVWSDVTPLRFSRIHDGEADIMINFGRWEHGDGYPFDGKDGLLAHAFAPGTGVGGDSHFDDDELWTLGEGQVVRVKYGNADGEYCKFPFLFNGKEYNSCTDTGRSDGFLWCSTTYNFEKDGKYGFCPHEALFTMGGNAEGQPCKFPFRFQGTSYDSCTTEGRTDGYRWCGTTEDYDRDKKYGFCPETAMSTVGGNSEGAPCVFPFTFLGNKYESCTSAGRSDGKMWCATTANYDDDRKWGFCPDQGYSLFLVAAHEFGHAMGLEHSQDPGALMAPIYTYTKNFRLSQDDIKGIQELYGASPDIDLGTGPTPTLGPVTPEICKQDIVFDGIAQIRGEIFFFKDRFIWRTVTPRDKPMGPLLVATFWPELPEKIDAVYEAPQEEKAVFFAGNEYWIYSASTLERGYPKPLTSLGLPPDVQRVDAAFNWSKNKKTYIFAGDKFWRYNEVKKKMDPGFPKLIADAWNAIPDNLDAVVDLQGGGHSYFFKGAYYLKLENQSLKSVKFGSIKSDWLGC

[6] = target: Matrix metalloproteinase-15 (Homo sapiens, UniProt P51511)
[7] = target: A disintegrin and metalloproteinase with thrombospondin motifs 5 (Homo sapiens, UniProt Q9UNA0); test: Inhibition of ADAMTS5
Chain of A disintegrin and metalloproteinase with thrombospondin motifs 5 (Q9UNA0 whole entry): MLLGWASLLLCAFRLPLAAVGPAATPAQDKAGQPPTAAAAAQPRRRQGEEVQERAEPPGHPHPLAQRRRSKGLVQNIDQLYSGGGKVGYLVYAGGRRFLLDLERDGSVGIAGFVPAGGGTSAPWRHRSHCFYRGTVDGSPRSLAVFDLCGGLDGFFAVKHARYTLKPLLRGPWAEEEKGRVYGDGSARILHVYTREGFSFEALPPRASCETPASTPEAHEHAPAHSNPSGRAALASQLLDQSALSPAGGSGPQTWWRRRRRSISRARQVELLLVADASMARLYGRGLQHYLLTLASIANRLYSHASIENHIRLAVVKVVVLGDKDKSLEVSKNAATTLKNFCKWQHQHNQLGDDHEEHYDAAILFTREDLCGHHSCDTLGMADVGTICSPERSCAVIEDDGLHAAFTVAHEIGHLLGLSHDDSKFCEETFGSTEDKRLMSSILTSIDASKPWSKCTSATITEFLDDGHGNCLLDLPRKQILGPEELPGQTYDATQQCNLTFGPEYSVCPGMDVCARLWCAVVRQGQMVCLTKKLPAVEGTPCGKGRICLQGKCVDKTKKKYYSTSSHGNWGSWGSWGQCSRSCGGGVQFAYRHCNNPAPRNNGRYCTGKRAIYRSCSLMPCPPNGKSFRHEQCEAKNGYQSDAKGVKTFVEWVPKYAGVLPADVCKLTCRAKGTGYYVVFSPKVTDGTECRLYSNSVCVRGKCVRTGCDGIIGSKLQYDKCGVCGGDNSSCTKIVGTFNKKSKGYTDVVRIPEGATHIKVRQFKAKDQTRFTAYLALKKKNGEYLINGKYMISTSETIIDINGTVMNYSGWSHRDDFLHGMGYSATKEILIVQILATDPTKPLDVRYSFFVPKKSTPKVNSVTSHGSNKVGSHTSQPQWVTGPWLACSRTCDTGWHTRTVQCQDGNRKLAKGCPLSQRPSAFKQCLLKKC

[8] = target: Matrix metalloproteinase-14 (Homo sapiens, UniProt P50281); test: Inhibition of MMP14
Stromelysin-2 = Stromelysin-2 (Homo sapiens, UniProt P09238); test: Inhibition of MMP10
Collagenase 3 [9] = target: T3, Collagenase 3 (Homo sapiens, UniProt P45452); test: Inhibition of MMP13
Collagenase 3 [10] = target: T3, Collagenase 3; test: Inhibition of MMP13 at 10 ug/mL
Neprilysin = Neprilysin (Homo sapiens, UniProt P08473); test: Inhibition of NEP
Matrilysin = target: T4, Matrilysin (Homo sapiens, UniProt P09237)
T4 sequence (P09237 whole entry): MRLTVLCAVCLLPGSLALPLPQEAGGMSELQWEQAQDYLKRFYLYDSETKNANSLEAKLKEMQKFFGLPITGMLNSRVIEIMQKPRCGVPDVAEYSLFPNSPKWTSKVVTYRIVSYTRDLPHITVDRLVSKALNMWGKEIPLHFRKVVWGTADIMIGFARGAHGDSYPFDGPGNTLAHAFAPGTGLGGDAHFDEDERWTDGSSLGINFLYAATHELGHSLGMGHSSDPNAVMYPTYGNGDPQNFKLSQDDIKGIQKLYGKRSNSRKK

[11] = target: Disintegrin and metalloproteinase domain-containing protein 17 (Homo sapiens, UniProt P78536); test: Inhibition of TACE
Chain of Disintegrin and metalloproteinase domain-containing protein 17 (Homo sapiens, UniProt P78536) (P78536 whole entry, the tested form may be a part): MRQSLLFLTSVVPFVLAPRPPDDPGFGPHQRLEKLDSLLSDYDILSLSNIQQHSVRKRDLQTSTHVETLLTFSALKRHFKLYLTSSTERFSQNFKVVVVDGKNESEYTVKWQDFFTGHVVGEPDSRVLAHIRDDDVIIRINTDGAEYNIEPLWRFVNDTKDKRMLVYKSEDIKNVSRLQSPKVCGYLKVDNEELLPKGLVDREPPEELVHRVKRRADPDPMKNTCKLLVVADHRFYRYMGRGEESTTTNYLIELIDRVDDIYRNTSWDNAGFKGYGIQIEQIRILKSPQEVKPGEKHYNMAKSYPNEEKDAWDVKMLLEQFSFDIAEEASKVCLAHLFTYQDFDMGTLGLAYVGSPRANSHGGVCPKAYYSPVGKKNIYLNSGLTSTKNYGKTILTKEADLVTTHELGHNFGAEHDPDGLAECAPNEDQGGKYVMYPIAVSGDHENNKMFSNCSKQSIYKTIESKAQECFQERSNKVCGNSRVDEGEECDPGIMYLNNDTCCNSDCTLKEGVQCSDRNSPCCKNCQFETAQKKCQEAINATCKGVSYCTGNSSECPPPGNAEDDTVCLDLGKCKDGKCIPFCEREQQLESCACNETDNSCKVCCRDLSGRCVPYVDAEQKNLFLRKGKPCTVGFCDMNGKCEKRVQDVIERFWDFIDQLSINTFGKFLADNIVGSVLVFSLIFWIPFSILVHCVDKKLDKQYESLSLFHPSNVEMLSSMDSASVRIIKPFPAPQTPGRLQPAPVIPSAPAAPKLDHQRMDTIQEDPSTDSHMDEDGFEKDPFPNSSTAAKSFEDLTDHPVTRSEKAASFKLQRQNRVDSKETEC

[12] = target: Macrophage metalloelastase (Homo sapiens, UniProt P39900); test: Inhibition of MMP12
[13] = target: Angiotensin-converting enzyme (Homo sapiens, UniProt P12821); test: Inhibition of ACE
Stromelysin-3 = Stromelysin-3 (Homo sapiens, UniProt P24347); test: Inhibition of MMP11
Chain of Stromelysin-3 (P24347 whole entry): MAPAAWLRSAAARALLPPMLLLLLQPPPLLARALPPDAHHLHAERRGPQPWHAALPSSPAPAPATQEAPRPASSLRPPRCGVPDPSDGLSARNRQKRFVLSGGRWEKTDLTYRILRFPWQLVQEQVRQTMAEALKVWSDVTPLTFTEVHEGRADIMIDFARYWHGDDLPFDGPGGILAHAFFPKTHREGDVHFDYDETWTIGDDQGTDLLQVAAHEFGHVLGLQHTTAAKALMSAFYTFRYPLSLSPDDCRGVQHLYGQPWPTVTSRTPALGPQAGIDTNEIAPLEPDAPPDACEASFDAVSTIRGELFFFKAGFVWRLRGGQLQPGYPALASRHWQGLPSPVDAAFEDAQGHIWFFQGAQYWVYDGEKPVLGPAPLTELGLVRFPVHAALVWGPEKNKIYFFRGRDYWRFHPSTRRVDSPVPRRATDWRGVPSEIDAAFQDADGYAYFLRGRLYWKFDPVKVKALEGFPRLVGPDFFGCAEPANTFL

[14] = target: T5, Interstitial collagenase (Homo sapiens) (UniProt P03956); test: Inhibition of MMP1
T5 sequence (whole entry): T1 sequence (P03956 whole entry)

[15] = target: T6, Matrix metalloproteinase-17 (Homo sapiens) (UniProt Q9ULZ9); test: Inhibition of MMP17
T6 sequence (whole entry): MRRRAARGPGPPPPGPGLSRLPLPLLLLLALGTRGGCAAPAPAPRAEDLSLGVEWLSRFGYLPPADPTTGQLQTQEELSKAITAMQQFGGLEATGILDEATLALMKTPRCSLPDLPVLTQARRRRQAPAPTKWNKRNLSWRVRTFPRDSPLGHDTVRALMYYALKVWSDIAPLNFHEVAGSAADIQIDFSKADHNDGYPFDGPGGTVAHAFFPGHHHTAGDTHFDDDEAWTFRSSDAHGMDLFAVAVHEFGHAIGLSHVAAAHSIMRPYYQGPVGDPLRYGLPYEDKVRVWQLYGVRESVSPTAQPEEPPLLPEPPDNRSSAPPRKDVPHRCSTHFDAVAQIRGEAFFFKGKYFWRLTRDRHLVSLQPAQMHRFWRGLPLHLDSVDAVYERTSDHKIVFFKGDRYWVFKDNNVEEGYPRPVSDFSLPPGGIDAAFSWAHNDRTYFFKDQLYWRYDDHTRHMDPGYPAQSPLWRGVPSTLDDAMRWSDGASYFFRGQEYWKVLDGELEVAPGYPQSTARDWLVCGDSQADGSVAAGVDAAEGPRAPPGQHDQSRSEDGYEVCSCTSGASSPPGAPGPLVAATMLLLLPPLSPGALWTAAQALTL

[16] = target: T7, Matrilysin (Homo sapiens) (UniProt P09237); test: Inhibition of MMP7
T7 sequence (whole entry): T4 sequence (P09237 whole entry)

[17] = Inhibition of bovine aggrecanase; parameters: species or system Bos taurus
[18] = Selectivity for bovine aggrecanase over MMP2
[19] = Selectivity for bovine aggrecanase over MMP1
[20] = target: T7, Matrilysin (Homo sapiens); test: Inhibition of MMP7 up to 60 uM
[21] = target: T5, Interstitial collagenase (Homo sapiens); test: Inhibition of MMP1 up to 60 uM

Chain of A disintegrin and metalloproteinase with thrombospondin motifs 1 (Q9UHI8 whole entry): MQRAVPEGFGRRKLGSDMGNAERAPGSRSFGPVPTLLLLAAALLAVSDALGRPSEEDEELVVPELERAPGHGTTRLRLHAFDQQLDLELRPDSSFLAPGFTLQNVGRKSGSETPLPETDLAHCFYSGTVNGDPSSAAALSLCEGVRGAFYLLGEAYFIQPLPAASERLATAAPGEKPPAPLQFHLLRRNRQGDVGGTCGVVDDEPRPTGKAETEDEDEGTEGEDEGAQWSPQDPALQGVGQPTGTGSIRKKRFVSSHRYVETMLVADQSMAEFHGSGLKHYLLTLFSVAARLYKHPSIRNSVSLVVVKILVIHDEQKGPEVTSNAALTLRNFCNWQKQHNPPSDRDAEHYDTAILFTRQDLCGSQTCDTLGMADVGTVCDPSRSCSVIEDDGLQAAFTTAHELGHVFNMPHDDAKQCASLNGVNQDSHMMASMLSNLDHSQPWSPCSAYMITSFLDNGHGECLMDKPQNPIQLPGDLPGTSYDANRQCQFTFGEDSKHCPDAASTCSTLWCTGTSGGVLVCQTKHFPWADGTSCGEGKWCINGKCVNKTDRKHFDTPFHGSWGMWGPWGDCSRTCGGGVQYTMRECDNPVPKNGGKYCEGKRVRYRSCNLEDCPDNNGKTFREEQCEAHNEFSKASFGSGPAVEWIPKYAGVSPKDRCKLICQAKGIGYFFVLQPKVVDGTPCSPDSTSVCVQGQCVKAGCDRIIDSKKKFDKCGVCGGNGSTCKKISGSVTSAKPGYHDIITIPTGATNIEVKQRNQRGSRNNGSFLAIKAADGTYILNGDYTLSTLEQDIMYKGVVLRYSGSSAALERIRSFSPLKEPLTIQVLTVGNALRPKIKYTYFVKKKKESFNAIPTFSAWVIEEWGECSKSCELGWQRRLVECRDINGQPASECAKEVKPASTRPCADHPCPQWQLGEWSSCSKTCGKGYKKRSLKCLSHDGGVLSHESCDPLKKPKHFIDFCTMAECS

Cc1cc(COc2ccc(C(=O)N[C@@]3(CC(=O)NO)C[C@@H](C)N[C@@H](C)C3)cc2)c2ccccc2n1
pKi [1]: 5.11 | pKi (Interstitial collagenase): < 5.30 | pKi [2]: < 5.52 | pKi [3]: 8.55 | pKi [4]: < 5.52 | pKi (Stromelysin-1): 6.12 | pKi (Neutrophil collagenase): 5.69 | pKi [5]: < 5.52 | pKi [6]: 5.77 | pKi [7]: 5.72 | pKi [8]: 6.79 | pKi (Stromelysin-2): 5.78 | pKi (Collagenase 3 [9]): < 5.30

O=C(NCCCCN1CCOCC1)c1cc2ccccc2o1
Activity (Collagenase 3 [10]): inactive

NC(=O)[C@H](CCC(=O)O)NC(=O)[C@H](CCC(=O)O)NC(=O)[C@H](Cc1cc(-c2ccc(-c3cccc(Cl)c3)cc2)no1)CP(=O)(O)c1ccc(Br)cc1
pKi (Interstitial collagenase): 4.17 | pKi (Neprilysin): < 4.00 | pKi [4]: 5.90 | pKi (Stromelysin-1): 7.40 | pKi (Neutrophil collagenase): 6.57 | pKi (Matrilysin): 6.20 | pKi [11]: < 4.00 | pKi [12]: 9.72 | pKi [5]: 6.72 | pKi [13]: < 4.00 | pKi (Stromelysin-3): 4.74 | pKi [8]: 6.85 | pKi (Collagenase 3 [9]): 7.31

COc1ccc(CNC(=O)c2cc3c(=O)n(Cc4ccc(C(=O)O)cc4)cnc3cn2)cc1
Activity [4]: inactive | Activity [14]: inactive | Activity (Neutrophil collagenase): inactive | Activity [15]: inactive | Activity [12]: inactive | Activity [16]: inactive | Activity [8]: inactive

CS(=O)(=O)N1CCC([C@H](C(=O)NO)[C@@H](Cc2cccc(O)c2)C(=O)N[C@H]2c3ccccc3C[C@H]2O)CC1
pIC50 [17]: 8.52 | fold change (FC) [18]: > 100 | fold change (FC) [19]: > 100

O=S(=O)(CCC(S)CS)c1ccc(Oc2ccccc2)cc1 (stereo not drawn)
Activity [20]: inactive | pKi [4]: 7.00 | pKi (Stromelysin-1): 5.00 | pKi [5]: 7.34 | Activity [21]: inactive | pKi [8]: 6.68
